From paper PMC6213047, “Design of Antibacterial Agents: Alkyl Dihydroxybenzoates against Xanthomonas citri subsp. citri” (International Journal of Molecular Sciences, 2018) come the findings set out here.

The subject of data set [1] is X. citri subsp. citri strain 306 (IBSBF 1594). The data set can be described thus: MIC by Resazurin Microtiter Assay (REMA). Type of data set: cell-based, Xanthomonas citri subsp. citri. The following applies: Xanthomonas citri, 12 h. On the procedure: The antibacterial potential of carboxylic acids and their esters were compared to copper oxychloride (a commercial active often used to combat citrus canker). Minimal inhibitory concentration (MIC) values were determined by REMA assay, which measures cellular respiratory activity.
(§1) The antibacterial activity of alkyl dihydroxybenzoates and the determination of minimum inhibition concentration (MIC) were performed by the fluorimetric method Resazurin Microtiter Assay (REMA) with some modifications. An overnight culture of X. citri subsp. citri strain 306 (IBSBF 1594) was grown in 20 mL in Nitrogen Yeast Glycerol (NYG) at 29 °C in constant agitation of 180–200 rpm. After 12 h, the Xcc inoculum was dispersed in NYG medium and distributed into a 96 well microtiter plate to a final volume of 100 μL per well (10^5 CFU per well). Stock solutions of tested compounds at 10 mg mL^−1 were prepared in dimethyl sulfoxide (DMSO) and dispersed in NYG medium to obtain 1% DMSO and the final compound concentration range of 0.78–100 μg mL^−1. The negative control was constituted of 100 μL culture medium. In addition, the copper oxychloride was tested as a comparison to alkyl dihydroxybenzoates and kanamycin (20 μg mL^−1), which was used as a control antibiotic. The plate was subsequently incubated at 29 °C for 12 h, and 15 μg mL^−1 freshly prepared resazurin solution in water was added to each well, and the plate was incubated for 2 h. The fluorescence was determined on a Synergy H1 (BioTek, Winooski, VT, USA) microplate reader using the excitation and emission filters at wavelengths of 530 and 590 nm respectively. After the REMA assay, the minimum bactericidal concentration (CBM) assay was performed using a 96-pin stainless steel plate replicator, accurately transferring the wells from the REMA plate to Petri dishes Petri dishes were incubated in oven B.O.D. at 29 °C for 24 to 48 h. The experiments were performed in triplicate.
On the technique in general: Alamar Blue is a resazurin reagent that responds to reducing activity.

Data set [2] in a line: Partition coefficient log Po/w by HPLC (OECD 117). Type of data set: physicochemical. The settings on record: HPLC method, OECD 117, methanol:water 3:1. Here is the method:
The analyses were performed with the use of an isocratic flow in methanol: water (3:1) at 1.0 mL min^−1. We injected 20.0 μL and analyses were performed at 254 nm. We used as reference compounds thiourea, phenol, acetophenone, benzoic acid, benzene, toluene, biphenyl, fluoranthene and triphenylamine in order to construct the curve log K × log Po/w. The lipophilicity of alkyl dihydroxybenzoates was determined from their retention times and interpolation in linearity curve log K × log Po/w. We performed the analyses in duplicate.

Data set [3] deals with X. citri subsp. citri strain 306 (IBSBF 1594). The data set can be described thus: MBC, REMA plates replicated to Petri dishes. Type of data set: cell-based, Xanthomonas citri subsp. citri. The following applies: Xanthomonas citri. On the procedure: The minimal bactericidal concentration (MBC) was determined by observing the bacterial growth in Petri dishes transferred from the REMA plates.
as §1

The mark [4] stands for this setting: REMA, NYG medium, 29 °C, read-out: MIC.
[5] abbreviates: REMA, NYG medium, 29 °C, read-out: MIC in μM.
The mark [6] stands for this setting: Petri dishes from REMA plates, 29 °C, 24 to 48 h, read-out: MBC.

Like-named read-outs stand apart in the source and are kept apart here.

What is called MIC is the least concentration at which growth counts as inhibited. By chromatographic logP is commonly meant a lipophilicity value derived from retention on a column. Lower therefore signals a more hydrophilic compound. The term MBC denotes the smallest concentration meeting the test's criterion for killing. Regarding `O=C(O)c1ccc(O)cc1O` [2,4 DHB acid, 2,4 dihydroxybenzoic acid, reference compound], the values for the MIC in data set [1] (setting [4]) and in data set [1] (setting [5]) were greater than 100 µg/mL and greater than 648 µM, respectively. Also, the chromatographic logP in data set [2] amounted to 2.6. In addition, the MBC in data set [3] (setting [6]) was greater than 100 µg/mL.

In the case of `O=C(O)c1cc(O)ccc1O` [2,5 DHB acid, 2,5 dihydroxybenzoic acid, reference compound], the MIC in data set [1] (setting [4]) is greater than 100 µg/mL; in data set [1] (setting [5]) it was greater than 648 µM. Moreover, in data set [2], the chromatographic logP is 2.8. In data set [3] (setting [6]), the MBC was greater than 100 µg/mL.

In the case of `O=C(O)c1ccc(O)c(O)c1` [3,4 DHB acid, 3,4 dihydroxybenzoic acid, reference compound], the MIC in data set [1] (setting [4]) was greater than 100 µg/mL; in data set [1] (setting [5]), greater than 648 µM. Moreover, the chromatographic logP in data set [2] stood at 0.8. In addition, in data set [3] (setting [6]), the MBC is greater than 100 µg/mL.

Take `CCOC(=O)c1ccc(O)cc1O` [Compound 1]: the MIC in data set [1] (setting [4]) was greater than 100 µg/mL; in data set [1] (setting [5]), greater than 548 µM. The same molecule had a chromatographic logP in data set [2] of 2.8. The MBC in data set [3] (setting [6]) was greater than 100 µg/mL.

On to `CCCCOC(=O)c1ccc(O)cc1O` [Compound 2], for which, in data set [1] (setting [5]), the MIC was 189 µM. The molecule further registered a chromatographic logP in data set [2] of 3.9. The MBC in data set [3] (setting [6]) turned out to be 50 µg/mL.

Take `CCCCCCOC(=O)c1ccc(O)cc1O` [Compound 3]: the MIC in data set [1] (setting [5]) came to 84 µM. Besides, the chromatographic logP in data set [2] came to 5. The MBC in data set [3] (setting [6]) is 50 µg/mL.

With `CCCCCCCCOC(=O)c1ccc(O)cc1O` [Compound 5], the MIC in data set [1] (setting [4]) is greater than 100 µg/mL; in data set [1] (setting [5]) it was greater than 375 µM. In data set [2], the chromatographic logP worked out at 6.1. Moreover, the MBC in data set [3] (setting [6]) is greater than 100 µg/mL.

As to `CCCCCCCCCOC(=O)c1ccc(O)cc1O` [Compound 6], the MIC in data set [1] (setting [4]) was greater than 100 µg/mL; in data set [1] (setting [5]), greater than 356 µM. Also, the chromatographic logP in data set [2] was found to be 6.2. Further, in data set [3] (setting [6]), the MBC was greater than 100 µg/mL.

Turning to `CCCCCCCCCCOC(=O)c1ccc(O)cc1O` [Compound 7], the MIC in data set [1] (setting [4]) is greater than 100 µg/mL; in data set [1] (setting [5]) it was greater than 340 µM. The molecule further registered a chromatographic logP in data set [2] of 6.9. In data set [3] (setting [6]), the MBC is greater than 100 µg/mL.

For the molecule `CCCCCCCCCCCCOC(=O)c1ccc(O)cc1O` [Compound 8, dodecyl 2,4 dihydroxybenzoate], the MIC in data set [1] (setting [4]) is greater than 100 µg/mL; in data set [1] (setting [5]), greater than 310 µM. For the same molecule, the chromatographic logP in data set [2] was 7. For the same molecule, in data set [3] (setting [6]), the MBC was greater than 100 µg/mL.

Take `CC(C)OC(=O)c1ccc(O)cc1O` [Compound 9]: the MIC was greater than 100 µg/mL in data set [1] (setting [4]) and greater than 510 µM in data set [1] (setting [5]). Further, the chromatographic logP in data set [2] came to 2.6. In addition, the MBC in data set [3] (setting [6]) is greater than 100 µg/mL.

`O=C(OC1CCCC1)c1ccc(O)cc1O` [Compound 10]: the MIC is greater than 100 µg/mL in data set [1] (setting [4]) and greater than 450 µM in data set [1] (setting [5]). For the same molecule, the chromatographic logP in data set [2] is 2.2. In addition, the MBC in data set [3] (setting [6]) was greater than 100 µg/mL.

`O=C(OC1CCCCC1)c1ccc(O)cc1O` [Compound 11]: the MIC in data set [1] (setting [5]) was found to be 171 µM. In addition, the chromatographic logP in data set [2] was 4. In addition, the MBC in data set [3] (setting [6]) was 100 µg/mL.

For `CCOC(=O)c1cc(O)ccc1O` [Compound 13], the MIC in data set [1] (setting [4]) is greater than 100 µg/mL; in data set [1] (setting [5]), greater than 549 µM. Moreover, the chromatographic logP in data set [2] was 2.4. In addition, in data set [3] (setting [6]), the MBC is greater than 100 µg/mL.

On to `CCCCOC(=O)c1cc(O)ccc1O` [Compound 14], for which the MIC in data set [1] (setting [4]) was greater than 100 µg/mL; in data set [1] (setting [5]), greater than 475 µM. In data set [2], this molecule gave a chromatographic logP of 3.4. Moreover, the MBC in data set [3] (setting [6]) is greater than 100 µg/mL.

Take `CCCCCCOC(=O)c1cc(O)ccc1O` [Compound 15]: in data set [1] (setting [5]), the MIC turned out to be 140 µM. In data set [2], this molecule showed a chromatographic logP of 4.5. The MBC in data set [3] (setting [6]) amounted to 50 µg/mL.

Regarding `CCCCCCCCOC(=O)c1cc(O)ccc1O` [Compound 17], the MIC in data set [1] (setting [4]) is greater than 100 µg/mL; in data set [1] (setting [5]), greater than 375 µM. Also, the chromatographic logP in data set [2] amounted to 5.2. Also, the MBC in data set [3] (setting [6]) was greater than 100 µg/mL.

Regarding `CCCCCCCCCOC(=O)c1cc(O)ccc1O` [Compound 18], the MIC is greater than 100 µg/mL in data set [1] (setting [4]) and greater than 357 µM in data set [1] (setting [5]). Further, the chromatographic logP in data set [2] worked out at 5.7. Further, the MBC in data set [3] (setting [6]) was greater than 100 µg/mL.

As for `CCCCCCCCCCOC(=O)c1ccc(O)c(O)c1` [Compound 31], the MIC was greater than 100 µg/mL in data set [1] (REMA, NYG medium, 29 °C) and greater than 340 µM in data set [1] (read-out: MIC in μM, REMA, NYG medium, 29 °C, 12 h). In addition, the MBC in data set [3] was determined as 100 µg/mL.
